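48-hour exposure; five concentrations; linearly interpolated endpoints. GI50: concentration for 50% inhibition of growth.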 Calls of active or inactive are those of the source. Rule as the data show it: active = GI50 up to about 1.1 µM and inactive = higher.
How the values were obtained:
Assay in all cases: NCI-60 cell line screen, 48 h
[1] = test system: CCRF-CEM
[2] = test system: COLO 205
[3] = test system: UACC-257
[4] = test system: NCI-H460
[5] = test system: SR
[6] = test system: M14
[7] = test system: T47D
[8] = test system: HT-29
[9] = test system: IGROV-1
[10] = test system: A498
[11] = test system: SF-539
[12] = test system: 786-0
[13] = test system: SNB-75
[14] = test system: LOX IMVI
[15] = test system: PC-3
[16] = test system: SK-MEL-2
[17] = test system: NCI-H226
[18] = test system: MDA-N
[19] = test system: RPMI-8226
[20] = test system: HCC 2998

SMILES	GI50 [1]	GI50 [2]	GI50 [3]	GI50 [4]	GI50 [5]	GI50 [6]	GI50 [7]	GI50 [8]	GI50 [9]	GI50 [10]	GI50 [11]	GI50 [12]	GI50 [13]	GI50 [14]	GI50 [15]	GI50 [16]	GI50 [17]	GI50 [18]	GI50 [19]	GI50 [20]
Cn1c(=S)c2nc(SCCN3C(=O)c4ccccc4C3=O)[nH]c2n(C)c1=O	17.3 µM (inactive)	> 100 µM (inactive)	> 100 µM (inactive)	92.7 µM (inactive)	3.75 µM (inactive)	> 100 µM (inactive)	> 100 µM (inactive)	> 100 µM (inactive)	30.1 µM (inactive)	> 100 µM (inactive)	> 100 µM (inactive)	> 100 µM (inactive)	> 100 µM (inactive)	> 100 µM (inactive)	> 100 µM (inactive)	> 100 µM (inactive)	> 100 µM (inactive)	> 100 µM (inactive)	25.5 µM (inactive)	–
Nc1n[n+]2cc(-c3ccccc3)n(CC(=O)c3ccccc3)c2s1	15.8 µM (inactive)	15.3 µM (inactive)	25.5 µM (inactive)	> 100 µM (inactive)	18.4 µM (inactive)	21.3 µM (inactive)	22.6 µM (inactive)	27.2 µM (inactive)	70.8 µM (inactive)	> 100 µM (inactive)	20.1 µM (inactive)	20.5 µM (inactive)	–	17.9 µM (inactive)	39 µM (inactive)	15.5 µM (inactive)	32.4 µM (inactive)	34.4 µM (inactive)	17.1 µM (inactive)	15 µM (inactive)
Cc1occc(=O)c1O [MALTOL]	> 100 µM (inactive)	> 100 µM (inactive)	> 100 µM (inactive)	> 100 µM (inactive)	> 100 µM (inactive)	> 100 µM (inactive)	> 100 µM (inactive)	> 100 µM (inactive)	> 100 µM (inactive)	–	> 100 µM (inactive)	> 100 µM (inactive)	> 100 µM (inactive)	> 100 µM (inactive)	> 100 µM (inactive)	> 100 µM (inactive)	> 100 µM (inactive)	> 100 µM (inactive)	> 100 µM (inactive)	> 100 µM (inactive)
N#Cc1cc(N(CCCl)CCCl)c([N+](=O)[O-])cc1[N+](=O)[O-]	19.2 µM (inactive)	> 100 µM (inactive)	> 100 µM (inactive)	18.6 µM (inactive)	2.89 µM (inactive)	> 100 µM (inactive)	11.4 µM (inactive)	> 100 µM (inactive)	> 100 µM (inactive)	> 100 µM (inactive)	> 100 µM (inactive)	81.1 µM (inactive)	–	98.2 µM (inactive)	> 100 µM (inactive)	> 100 µM (inactive)	–	> 100 µM (inactive)	38.2 µM (inactive)	–
CCOP(=O)(C=C=C(C)C)OCC	–	> 100 µM (inactive)	> 100 µM (inactive)	> 100 µM (inactive)	> 100 µM (inactive)	> 100 µM (inactive)	> 100 µM (inactive)	> 100 µM (inactive)	> 100 µM (inactive)	> 100 µM (inactive)	> 100 µM (inactive)	> 100 µM (inactive)	> 100 µM (inactive)	> 100 µM (inactive)	> 100 µM (inactive)	> 100 µM (inactive)	> 100 µM (inactive)	> 100 µM (inactive)	–	> 100 µM (inactive)
CCN(CC)C(=O)N[C@@H](CC(C)C)C(=O)NC	> 100 µM (inactive)	> 100 µM (inactive)	–	> 100 µM (inactive)	> 100 µM (inactive)	> 100 µM (inactive)	> 100 µM (inactive)	> 100 µM (inactive)	> 100 µM (inactive)	> 100 µM (inactive)	–	> 100 µM (inactive)	> 100 µM (inactive)	> 100 µM (inactive)	73.6 µM (inactive)	> 100 µM (inactive)	–	> 100 µM (inactive)	> 100 µM (inactive)	> 100 µM (inactive)
c1ccc2c(c1)Nc1nc3nonc3nc1N2	> 100 µM (inactive)	> 100 µM (inactive)	> 100 µM (inactive)	> 100 µM (inactive)	> 100 µM (inactive)	> 100 µM (inactive)	> 100 µM (inactive)	> 100 µM (inactive)	> 100 µM (inactive)	> 100 µM (inactive)	–	> 100 µM (inactive)	–	> 100 µM (inactive)	> 100 µM (inactive)	> 100 µM (inactive)	> 100 µM (inactive)	> 100 µM (inactive)	> 100 µM (inactive)	> 100 µM (inactive)
Cc1ccccc1OC(C)C(=O)NN1C(=O)CSC1c1ccc(Cl)cc1 (configuration not stated)	–	> 56.1 µM (inactive)	55 µM (inactive)	26.1 µM (inactive)	5.47 µM (inactive)	41.5 µM (inactive)	51.1 µM (inactive)	18.4 µM (inactive)	38.5 µM (inactive)	24 µM (inactive)	26.5 µM (inactive)	18.2 µM (inactive)	35.7 µM (inactive)	24.4 µM (inactive)	35.7 µM (inactive)	> 53.7 µM (inactive)	> 49.1 µM (inactive)	60.3 µM (inactive)	26.5 µM (inactive)	34.9 µM (inactive)
CCOC(=O)c1cc([N+](=O)[O-])c(Sc2ncnc3nc[nH]c23)c([N+](=O)[O-])c1	1.27 µM (inactive)	1.66 µM (inactive)	7.28 µM (inactive)	7.5 µM (inactive)	3.24 µM (inactive)	2.31 µM (inactive)	2.96 µM (inactive)	3.06 µM (inactive)	1.26 µM (inactive)	12.7 µM (inactive)	3.09 µM (inactive)	2.79 µM (inactive)	–	0.378 µM (active)	9.82 µM (inactive)	8.89 µM (inactive)	5.61 µM (inactive)	2.75 µM (inactive)	0.865 µM (active)	17.8 µM (inactive)
COc1cc(C2c3cc4c(cc3[C@@H](Nc3ccc(F)cc3)C3COC(=O)[C@H]23)OCO4)cc(OC)c1O (some centres not stated)	–	2.03 µM (inactive)	6.05 µM (inactive)	0.0468 µM (active)	0.106 µM (active)	2.56 µM (inactive)	0.605 µM (active)	3.41 µM (inactive)	5.31 µM (inactive)	1.89 µM (inactive)	1.86 µM (inactive)	1.47 µM (inactive)	1.91 µM (inactive)	0.753 µM (active)	1.65 µM (inactive)	6.49 µM (inactive)	0.897 µM (active)	8.93 µM (inactive)	1.1 µM (active)	3.28 µM (inactive)
COC(=O)c1cccc2c1Oc1ccccc1S2	23.4 µM (inactive)	19.6 µM (inactive)	> 100 µM (inactive)	44.3 µM (inactive)	> 100 µM (inactive)	> 100 µM (inactive)	32.3 µM (inactive)	25.9 µM (inactive)	56.2 µM (inactive)	85.3 µM (inactive)	55.1 µM (inactive)	42.9 µM (inactive)	24.1 µM (inactive)	> 100 µM (inactive)	63.2 µM (inactive)	> 100 µM (inactive)	37.4 µM (inactive)	> 100 µM (inactive)	61.1 µM (inactive)	–
CC(C)(C)C(=O)C(C(c1ccccc1)N1CCOCC1)N1CCOCC1 (configuration not stated)	> 100 µM (inactive)	–	> 100 µM (inactive)	> 100 µM (inactive)	> 100 µM (inactive)	> 100 µM (inactive)	> 100 µM (inactive)	> 100 µM (inactive)	> 100 µM (inactive)	> 100 µM (inactive)	–	> 100 µM (inactive)	> 100 µM (inactive)	> 100 µM (inactive)	> 100 µM (inactive)	> 100 µM (inactive)	–	> 100 µM (inactive)	> 100 µM (inactive)	> 100 µM (inactive)
COC(=O)/C=C/c1ccc2c(c1)CCC2	46.9 µM (inactive)	–	54 µM (inactive)	> 100 µM (inactive)	36.7 µM (inactive)	64.3 µM (inactive)	11.3 µM (inactive)	26.8 µM (inactive)	36.5 µM (inactive)	27.2 µM (inactive)	72.8 µM (inactive)	39.4 µM (inactive)	18.7 µM (inactive)	> 100 µM (inactive)	30.4 µM (inactive)	48 µM (inactive)	–	> 100 µM (inactive)	74.5 µM (inactive)	> 100 µM (inactive)
Oc1ccc2oc3c(O)c4ccccc4cc3c2c1	1.5 µM (inactive)	10.6 µM (inactive)	52 µM (inactive)	23.5 µM (inactive)	1.72 µM (inactive)	3.49 µM (inactive)	20.3 µM (inactive)	17.5 µM (inactive)	0.851 µM (active)	2.45 µM (inactive)	1.75 µM (inactive)	5.93 µM (inactive)	–	4.08 µM (inactive)	4.06 µM (inactive)	7.91 µM (inactive)	–	0.927 µM (active)	1.31 µM (inactive)	–
Cc1ccc2c(C(=O)c3c(C)n(CCN4CCOCC4)c4ccccc34)cccc2c1	1.79 µM (inactive)	–	16.3 µM (inactive)	21.1 µM (inactive)	6.43 µM (inactive)	16.3 µM (inactive)	17.2 µM (inactive)	11.2 µM (inactive)	19.3 µM (inactive)	28.6 µM (inactive)	0.156 µM (active)	13.8 µM (inactive)	–	12.9 µM (inactive)	11.9 µM (inactive)	17.4 µM (inactive)	< 0.01 µM (active)	4.06 µM (inactive)	0.0592 µM (active)	–
